Drawing on paper PMC2906706 (Cancer research, 2010), this text covers IC50 for 1 compound.

Assay [1] deals with OCT2 (Homo sapiens, UniProt O15244). Kind of assay: inhibition of ASP+ uptake in HEK293 cells over-expressing OCT2. In kind it is cell-based.
The target in assay [2] is T1, OCT1 (Homo sapiens, UniProt O15245).
T1 sequence (O15245 1-554): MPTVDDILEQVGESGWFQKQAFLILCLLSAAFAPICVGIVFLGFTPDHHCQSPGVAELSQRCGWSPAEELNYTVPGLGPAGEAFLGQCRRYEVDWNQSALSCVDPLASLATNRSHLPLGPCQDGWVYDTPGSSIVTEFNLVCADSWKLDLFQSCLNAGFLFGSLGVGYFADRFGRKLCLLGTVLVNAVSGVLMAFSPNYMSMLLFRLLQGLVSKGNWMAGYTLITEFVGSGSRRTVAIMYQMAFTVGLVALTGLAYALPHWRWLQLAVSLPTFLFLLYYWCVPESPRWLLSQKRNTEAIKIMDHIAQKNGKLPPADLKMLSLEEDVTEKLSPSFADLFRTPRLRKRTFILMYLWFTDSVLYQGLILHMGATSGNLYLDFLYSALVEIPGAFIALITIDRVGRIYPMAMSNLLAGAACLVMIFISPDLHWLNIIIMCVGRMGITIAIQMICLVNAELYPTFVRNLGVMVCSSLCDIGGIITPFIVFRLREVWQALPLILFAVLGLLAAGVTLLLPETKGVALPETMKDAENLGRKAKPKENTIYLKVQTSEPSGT
In words: inhibition of ASP+ uptake in HEK293 cells over-expressing OCT1. In kind it is cell-based.

OCT2, sequence (O15244 whole entry): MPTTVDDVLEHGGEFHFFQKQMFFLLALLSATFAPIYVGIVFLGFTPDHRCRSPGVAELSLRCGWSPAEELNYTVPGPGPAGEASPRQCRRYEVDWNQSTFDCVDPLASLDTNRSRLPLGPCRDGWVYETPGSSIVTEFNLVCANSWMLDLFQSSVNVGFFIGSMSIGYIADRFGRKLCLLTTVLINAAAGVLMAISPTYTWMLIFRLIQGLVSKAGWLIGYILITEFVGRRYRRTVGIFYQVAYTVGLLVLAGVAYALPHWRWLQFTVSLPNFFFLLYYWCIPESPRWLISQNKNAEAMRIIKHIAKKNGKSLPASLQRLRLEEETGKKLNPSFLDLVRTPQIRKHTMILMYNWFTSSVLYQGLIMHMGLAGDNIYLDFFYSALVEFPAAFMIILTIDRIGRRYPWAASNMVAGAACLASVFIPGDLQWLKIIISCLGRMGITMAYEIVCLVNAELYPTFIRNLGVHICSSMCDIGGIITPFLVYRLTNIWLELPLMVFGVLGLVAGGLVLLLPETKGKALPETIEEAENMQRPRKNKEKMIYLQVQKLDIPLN

`CN1CCN(CCOc2cc(OC3CCOCC3)c3c(Nc4c(Cl)ccc5c4OCO5)ncnc3c2)CC1` [saracatinib, N-(5-chloro-1,3-benzodioxol-4-yl)-7-[2-(4-methylpiperazin-1-yl)ethoxy]-5-(tetrahydro-2H-pyran-4-yloxy)quinazolin-4-amine]: the IC50 – broadly, the concentration needed to halve the response being measured – in assay [1] was found to be 0.46 µM; in assay [2], 27.1 µM.
